Assay results from patent US20060069132A1, “Azolecarboxamide herbicides” (priority 2004, published 2006).

Tests used:
barnyardgrass [1] = test: Test A pre-/postemergence herbicide test; type: in vivo, Echinochloa crus-galli
How it was run: (§1)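 Visual injury scores on a 0–100 scale (100 = complete control) taken about ten days post-treatment in greenhouse against untreated controls; dash means no result. Treatments: preemergence soil spray and postemergence spray to runoff on one- to two-leaf plants 2 to 10 cm tall, surfactant-containing formulation.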

redroot pigweed = test: Test A pre-/postemergence herbicide test; type: in vivo, Amaranthus retroflexus
How it was run: as §1

barnyardgrass [2] = test: Test C flooded paddy test; type: in vivo, Echinochloa crus-galli; conditions: for Plant response rating, Barnyardgrass: 500 g ai/ha, visual rating after 12 to 14 days
How it was run: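 After a postemergence application at 1 to 4 leaves (plants 2–18 cm high), or at 2 leaves for barnyardgrass in flooded paddy, plants stayed in the greenhouse for 12 to 14 days. Damage was then judged visually relative to control plants, with 100 indicating complete control.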

giant foxtail = test: Test A pre-/postemergence herbicide test; type: in vivo, Setaria faberi
How it was run: as §1

large crabgrass = test: Test A pre-/postemergence herbicide test; type: in vivo, Digitaria sanguinalis
How it was run: as §1

woolly cupgrass = test: Test C pre-/postemergence herbicide test; type: in vivo, Eriochloa villosa; conditions: preemergence
From the text: (§2) Seeds of plant species selected from bermudagrass (Cynodon dactylon (L.) Pers.), Surinam grass (Urochloa decumbens (Staph) R. D. Webster, previously named Brachiaria decumbens Stapf), cocklebur (Xanthium strumarium L.), corn (Zea mays L.), large crabgrass (Digitaria sanguinalis (L.) Scop.), woolly cupgrass (Eriochloa villosa (Thunb.) Kunth), giant foxtail (Setaria faberi Herrm.), goosegrass (Eleusine indica (L.) Gaertn.), johnsongrass (Sorghum halepense (L.) Pers.), kochia (Kochia scoparia (L.) Schrad.), lambsquarters (Chenopodium album L.), morningglory (Ipomoea coccinea L.), eastern black nightshade (Solanum ptycanthum Dunal), yellow nutsedge (Cyperus esculentus L.), pigweed (Amaranthus retroflexus L.), common ragweed (Ambrosia elatior L.), soybean (Glycine max (L.) Merr.), common (oilseed) sunflower (Helianthus annuus L.) and velvetleaf (Abutilon theophrasti Medik.) were planted and treated preemergence with test chemicals formulated in a non-phytotoxic solvent mixture which included a surfactant.
(§3) At the same time, plants selected from these crop and weed species and also winter barley (Hordeum vulgare L.), blackgrass (Alopecurus myosuroides Huds.), canarygrass (Phalaris minor Retz.), chickweed (Stellaria media (L.) Vill.), downy bromegrass (Bromus tectorum L.), green foxtail (Setaria viridis (L.) Beauv.), Italian ryegrass (Lolium multiflorum Lam.), wheat (Triticum aestivum L.), wild oat (Avenafatua L.) and windgrass (Apera spica-venti (L.) Beauv.) were treated with postemergence applications of some of the test chemicals formulated in the same manner. Plants ranged in height from 2 to 18 cm (1- to 4-leaf stage) for postemergence treatments. Plant species in the flooded paddy test consisted of rice (Oryza sativa), smallflower umbrella sedge (Cyperus difformis L.), ducksalad (Heteranthera limosa (Sw.) Willd.) and barnyardgrass (Echinochloa crus-galli (L.) Beauv.) grown to the 2-leaf stage for testing. Treated plants and controls were maintained in a greenhouse for 12 to 14 days, after which time all species were compared to controls and visually evaluated. Plant response ratings, summarized in Table C, are based on a scale of 0 to 100 where 0 is no effect and 100 is complete control. A dash (-) response means no test result.

morningglory = test: Test C pre-/postemergence herbicide test; type: in vivo, Ipomoea coccinea; design: key to Plant response rating, Morningglory: 0 = no effect, 100 = complete control; conditions: preemergence
From the text: as §2, §3

johnsongrass = test: Test C pre-/postemergence herbicide test; type: in vivo, Sorghum halepense; conditions: preemergence
From the text: as §2, §3

bermudagrass = test: Test C pre-/postemergence herbicide test; type: in vivo, Cynodon dactylon; conditions: preemergence
From the text: as §2, §3

[3] = Postemergence, 500 g ai/ha, 0 to 100 scale, 0 no effect, 100 complete control
[4] = Postemergence, 2000 g ai/ha, 0 to 100 scale, 0 no effect, 100 complete control
[5] = Preemergence, 2000 g ai/ha, visual rating, 0 to 100 scale (0 no effect, 100 complete control)
[6] = preemergence, 500 g ai/ha, visual injury, 0 to 100 scale (0 no effect, 100 complete control)
[7] = 62 g ai/ha, scale 0 to 100 (0 no effect, 100 complete control)
[8] = 125 g ai/ha, scale 0 to 100 (0 no effect, 100 complete control)
[9] = 250 g ai/ha, scale of 0 to 100, 0 is no effect, 100 is complete control
[10] = scale 0 to 100 (0 no effect, 100 complete control)
[11] = 500 g ai/ha, scale 0 to 100 (0 no effect, 100 complete control), visual, 12 to 14 days

Structure (SMILES): C#CCNC(=O)c1cc(NC(=O)c2cc(C(C)(C)C)nn2CC)ccn1 [Compound 283]
- Barnyardgrass plant response rating (barnyardgrass [1]; [3]): 10
- Plant response rating, Barnyardgrass (barnyardgrass [1]; [4]): 35
- Barnyardgrass plant response rating (barnyardgrass [1]; [5]): 30
- Barnyardgrass plant response rating (barnyardgrass [1]; [6]): 0
- Pigweed plant response rating (redroot pigweed; [3]): 80
- Plant response rating, Pigweed (redroot pigweed; [4]): 100
- Pigweed plant response rating (redroot pigweed; [5]): 90
- Pigweed plant response rating (redroot pigweed; [6]): 60
- Barnyardgrass plant response rating (barnyardgrass [2]; [7]): 0
- Barnyardgrass plant response rating (barnyardgrass [2]; [8]): 0
- Barnyardgrass plant response rating (barnyardgrass [2]; [9]): 0
- Plant response rating, Barnyardgrass (barnyardgrass [2]; [10]): 10
- Foxtail, Giant plant response rating (giant foxtail; [3]): 10
- Plant response rating, Foxtail, Giant (giant foxtail; [4]): 25
- Foxtail, Giant plant response rating (giant foxtail; [5]): 50
- Foxtail, Giant plant response rating (giant foxtail; [6]): 10
- Crabgrass, Large plant response rating (large crabgrass; [3]): 10
- Plant response rating, Crabgrass, Large (large crabgrass; [4]): 10
- Crabgrass, Large plant response rating (large crabgrass; [5]): 90
- Crabgrass, Large plant response rating (large crabgrass; [6]): 15

Structure (SMILES): CCn1nc(C(C)(C)C)cc1C(=O)Nc1cncc(C(=O)N2CC=CC2)n1 [Compound 290]
- Barnyardgrass plant response rating (barnyardgrass [1]; [3]): 55
- Plant response rating, Barnyardgrass (barnyardgrass [1]; [4]): 70
- Barnyardgrass plant response rating (barnyardgrass [1]; [5]): 90
- Barnyardgrass plant response rating (barnyardgrass [1]; [6]): 40
- Pigweed plant response rating (redroot pigweed; [3]): 30
- Plant response rating, Pigweed (redroot pigweed; [4]): 60
- Pigweed plant response rating (redroot pigweed; [5]): 95
- Pigweed plant response rating (redroot pigweed; [6]): 10
- Barnyardgrass plant response rating (barnyardgrass [2]; [7]): 0
- Barnyardgrass plant response rating (barnyardgrass [2]; [8]): 0
- Barnyardgrass plant response rating (barnyardgrass [2]; [9]): 25
- Plant response rating, Barnyardgrass (barnyardgrass [2]; [10]): 40
- Foxtail, Giant plant response rating (giant foxtail; [3]): 15
- Plant response rating, Foxtail, Giant (giant foxtail; [4]): 70
- Foxtail, Giant plant response rating (giant foxtail; [5]): 90
- Foxtail, Giant plant response rating (giant foxtail; [6]): 50
- Crabgrass, Large plant response rating (large crabgrass; [3]): 10
- Plant response rating, Crabgrass, Large (large crabgrass; [4]): 10
- Crabgrass, Large plant response rating (large crabgrass; [5]): 25
- Crabgrass, Large plant response rating (large crabgrass; [6]): 5

Structure (SMILES): C#CCNC(=O)c1cccc(NC(=O)c2sc(C(C)(C)C)nc2CC)c1 [Compound 319]
- Barnyardgrass plant response rating (barnyardgrass [1]; [3]): 10
- Plant response rating, Barnyardgrass (barnyardgrass [1]; [4]): 60
- Barnyardgrass plant response rating (barnyardgrass [1]; [5]): 80
- Barnyardgrass plant response rating (barnyardgrass [1]; [6]): 55
- Pigweed plant response rating (redroot pigweed; [3]): 40
- Plant response rating, Pigweed (redroot pigweed; [4]): 40
- Pigweed plant response rating (redroot pigweed; [5]): 100
- Pigweed plant response rating (redroot pigweed; [6]): 100
- Barnyardgrass plant response rating (barnyardgrass [2]; [7]): 0
- Barnyardgrass plant response rating (barnyardgrass [2]; [8]): 25
- Barnyardgrass plant response rating (barnyardgrass [2]; [9]): 50
- Plant response rating, Barnyardgrass (barnyardgrass [2]; [10]): 65
- Foxtail, Giant plant response rating (giant foxtail; [3]): 0
- Plant response rating, Foxtail, Giant (giant foxtail; [4]): 40
- Foxtail, Giant plant response rating (giant foxtail; [5]): 80
- Foxtail, Giant plant response rating (giant foxtail; [6]): 55
- Crabgrass, Large plant response rating (large crabgrass; [3]): 10
- Plant response rating, Crabgrass, Large (large crabgrass; [4]): 50
- Crabgrass, Large plant response rating (large crabgrass; [5]): 100
- Crabgrass, Large plant response rating (large crabgrass; [6]): 85

Structure (SMILES): CCc1nn(C(C)C)nc1C(=O)Nc1cccc(C(=O)N2CCCCC2)c1 [Compound 385]
- Plant response rating, Cupgrass, Woolly (woolly cupgrass; 62 g ai/ha, scale 0 to 100): 0
- Plant response rating (0 = no effect, 100 = complete control), Cupgrass, Woolly (woolly cupgrass; 125 g ai/ha): 60
- Plant response rating, Cupgrass, Woolly (woolly cupgrass; 250 g ai/ha, scale 0-100): 80
- Plant response rating, Cupgrass, Woolly (woolly cupgrass; [11]): 95
- Plant response rating, Morningglory (morningglory; 62 g ai/ha, scale 0 to 100): 15
- Plant response rating, Morningglory (morningglory; 250 g ai/ha, scale 0-100): 65
- Plant response rating, Morningglory (morningglory; [11]): 100
- Barnyardgrass plant response rating (barnyardgrass [2]; [7]): 20
- Barnyardgrass plant response rating (barnyardgrass [2]; [8]): 55
- Barnyardgrass plant response rating (barnyardgrass [2]; [9]): 80
- Plant response rating, Barnyardgrass (barnyardgrass [2]; [10]): 85
- Plant response rating, Johnsongrass (johnsongrass; 62 g ai/ha, scale 0 to 100): 80
- Plant response rating (0 = no effect, 100 = complete control), Johnsongrass (johnsongrass; 125 g ai/ha): 95
- Plant response rating, Johnsongrass (johnsongrass; 250 g ai/ha, scale 0-100): 100
- Plant response rating, Johnsongrass (johnsongrass; [11]): 100
- Plant response rating, Bermudagrass (bermudagrass; 62 g ai/ha, scale 0 to 100, 0 no effect, 100 complete control): 55
- Plant response rating (0 = no effect, 100 = complete control), Bermudagrass (bermudagrass; 125 g ai/ha): 85
- Plant response rating, Bermudagrass (bermudagrass; 250 g ai/ha, scale 0-100): 100
- Plant response rating, Bermudagrass (bermudagrass; [11]): 100

Structure (SMILES): CCN(C(C)=O)C(=O)c1ccc(F)c(NC(=O)c2cc(C(C)(C)C)nn2CC)c1 [Compound 413]
- Barnyardgrass plant response rating (barnyardgrass [1]; [3]): 20
- Plant response rating, Barnyardgrass (barnyardgrass [1]; [4]): 50
- Barnyardgrass plant response rating (barnyardgrass [1]; [5]): 75
- Barnyardgrass plant response rating (barnyardgrass [1]; [6]): 60
- Pigweed plant response rating (redroot pigweed; [3]): 60
- Plant response rating, Pigweed (redroot pigweed; [4]): 85
- Pigweed plant response rating (redroot pigweed; [5]): 60
- Pigweed plant response rating (redroot pigweed; [6]): 45
- Barnyardgrass plant response rating (barnyardgrass [2]; [7]): 0
- Barnyardgrass plant response rating (barnyardgrass [2]; [8]): 25
- Barnyardgrass plant response rating (barnyardgrass [2]; [9]): 70
- Plant response rating, Barnyardgrass (barnyardgrass [2]; [10]): 80
- Foxtail, Giant plant response rating (giant foxtail; [3]): 10
- Plant response rating, Foxtail, Giant (giant foxtail; [4]): 35
- Foxtail, Giant plant response rating (giant foxtail; [5]): 90
- Foxtail, Giant plant response rating (giant foxtail; [6]): 65
- Crabgrass, Large plant response rating (large crabgrass; [3]): 10
- Plant response rating, Crabgrass, Large (large crabgrass; [4]): 15
- Crabgrass, Large plant response rating (large crabgrass; [5]): 70
- Crabgrass, Large plant response rating (large crabgrass; [6]): 40
